Converted amounts (≈) assume the structure as drawn. The source made the active and inactive calls. No cut-off for these calls is given here.
Experiments:
[1] = test system: Staphylococcus aureus; experiment: Antibacterial activity against Staphylococcus aureus MTCC 96 after 24 hrs by well diffusion method; assay type: functional; conditions: MTCC 96, 24 h
[2] = test system: Bacillus subtilis; experiment: Antibacterial activity against Bacillus subtilis MTCC 121 after 24 hrs by well diffusion method; assay type: functional; conditions: MTCC 121, 24 h
[3] = test system: Staphylococcus aureus; experiment: Antibacterial activity against Staphylococcus aureus MLS16 MTCC 2940 after 24 hrs by well diffusion method; assay type: functional; conditions: MLS16 MTCC 2940, 24 h
[4] = test system: Micrococcus luteus; experiment: Antibacterial activity against Micrococcus luteus MTCC 2470 after 24 hrs by well diffusion method; assay type: functional; conditions: MTCC 2470, 24 h
[5] = test system: Raoultella planticola; experiment: Antibacterial activity against Klebsiella planticola MTCC 530 after 24 hrs by well diffusion method; assay type: functional; conditions: MTCC 530, 24 h
[6] = test system: Escherichia coli; experiment: Antibacterial activity against Escherichia coli MTCC 739 after 24 hrs by well diffusion method; assay type: functional; conditions: MTCC 739, 24 h
[7] = test system: Pseudomonas aeruginosa; experiment: Antibacterial activity against Pseudomonas aeruginosa MTCC 2453 after 24 hrs by well diffusion method; assay type: functional; conditions: MTCC 2453, 24 h
[8] = test system: Candida albicans; experiment: Antifungal activity against Candida albicans MTCC 183 after 24 hrs by well diffusion method; assay type: functional; conditions: MTCC 183, 24 h
[9] = test system: Candida albicans; experiment: Antifungal activity against Candida albicans MTCC 227 after 24 hrs by well diffusion method; assay type: functional; conditions: MTCC 227, 24 h
[10] = test system: Candida albicans; experiment: Antifungal activity against Candida albicans MTCC 854 after 24 hrs by well diffusion method; assay type: functional; conditions: MTCC 854, 24 h
[11] = test system: Candida albicans; experiment: Antifungal activity against Candida albicans MTCC 1637 after 24 hrs by well diffusion method; assay type: functional; conditions: MTCC 1637, 24 h
[12] = test system: Candida albicans; experiment: Antifungal activity against Candida albicans MTCC 3017 after 24 hrs by well diffusion method; assay type: functional; conditions: MTCC 3017, 24 h
[13] = test system: Candida albicans; experiment: Antifungal activity against Candida albicans MTCC 3018 after 24 hrs by well diffusion method; assay type: functional; conditions: MTCC 3018, 24 h
[14] = test system: Candida albicans; experiment: Antifungal activity against Candida albicans MTCC 3958 after 24 hrs by well diffusion method; assay type: functional; conditions: MTCC 3958, 24 h
[15] = test system: Candida albicans; experiment: Antifungal activity against Candida albicans MTCC 4748 after 24 hrs by well diffusion method; assay type: functional; conditions: MTCC 4748, 24 h
[16] = test system: Candida albicans; experiment: Antifungal activity against Candida albicans MTCC 7315 after 24 hrs by well diffusion method; assay type: functional; conditions: MTCC 7315, 24 h
[17] = test system: Candida parapsilosis; experiment: Antifungal activity against Candida parapsilosis MTCC 1744 after 24 hrs by well diffusion method; assay type: functional; conditions: MTCC 1744, 24 h
[18] = test system: [Candida] aaseri; experiment: Antifungal activity against Candida aaseri MTCC 1962 after 24 hrs by well diffusion method; assay type: functional; conditions: Yamadazyma aaseri, MTCC 1962, 24 h
[19] = test system: Nakaseomyces glabratus; experiment: Antifungal activity against Candida glabrata MTCC 3019 after 24 hrs by well diffusion method; assay type: functional; conditions: MTCC 3019, 24 h
[20] = test system: Pichia kudriavzevii; experiment: Antifungal activity against Candida krusei MTCC 3020 after 24 hrs by well diffusion method; assay type: functional; conditions: MTCC 3020, 24 h
[21] = test system: Pichia sporocuriosa; experiment: Antifungal activity against Issatchenkia hanoiensis MTCC 4755 after 24 hrs by well diffusion method; assay type: functional; conditions: MTCC 4755, 24 h
[22] = test system: HeLa; experiment: Cytotoxicity against human HeLa cells after 24 hrs by MTT assay; assay type: functional, cell-based
[23] = test system: HepG2; experiment: Cytotoxicity against human HepG2 cells after 24 hrs by MTT assay; assay type: functional, cell-based; conditions: HepG2, 24 h
[24] = test system: A549; experiment: Cytotoxicity against human A549 cells after 24 hrs by MTT assay; assay type: functional, cell-based; conditions: A549, 24 h
[25] = test system: COLO 205; experiment: Cytotoxicity against human COLO205 cells after 24 hrs by MTT assay; assay type: functional, cell-based; conditions: COLO 205, 24 h
[26] = test system: Candida albicans; experiment: Antibiofilm activity against Candida albicans MTCC 4748 after 24 hrs by crystal violet staining based method; assay type: functional; conditions: MTCC 4748, 24 h
[27] = test system: HeLa; experiment: Cytotoxicity against human HeLa cells at >100 uM after 24 hrs by MTT assay; assay type: functional, cell-based
[28] = test system: HepG2; experiment: Cytotoxicity against human HepG2 cells at >100 uM after 24 hrs by MTT assay; assay type: functional, cell-based
[29] = test system: A549; experiment: Cytotoxicity against human A549 cells at >100 uM after 24 hrs by MTT assay; assay type: functional, cell-based
[30] = test system: COLO 205; experiment: Cytotoxicity against human COLO205 cells at >100 uM after 24 hrs by MTT assay; assay type: functional, cell-based

Structure (SMILES) | MIC [1] [µg/mL] | MIC [2] [µg/mL] | MIC [3] [µg/mL] | MIC [4] [µg/mL] | MIC [5] [µg/mL] | MIC [6] [µg/mL] | MIC [7] [µg/mL] | MIC [8] [µg/mL] | MIC [9] [µg/mL] | MIC [10] [µg/mL] | MIC [11] [µg/mL] | MIC [12] [µg/mL] | MIC [13] [µg/mL] | MIC [14] [µg/mL] | MIC [15] [µg/mL] | MIC [16] [µg/mL] | MIC [17] [µg/mL] | MIC [18] [µg/mL] | MIC [19] [µg/mL] | MIC [20] [µg/mL] | also measured
COc1ccc(NC(=O)Cn2nc(C(F)(F)F)c3c(-c4ccccc4)c4ccccc4nc32)cc1 | 31.2 (≈ 65.5 µM) | 62.5 (≈ 131 µM) | 62.5 (≈ 131 µM) | 7.8 (≈ 16.4 µM) | 7.8 (≈ 16.4 µM) | 62.5 (≈ 131 µM) | > 125 | 62.5 (≈ 131 µM) | 31.2 (≈ 65.5 µM) | 31.2 (≈ 65.5 µM) | 62.5 (≈ 131 µM) | 31.2 (≈ 65.5 µM) | 62.5 (≈ 131 µM) | 31.2 (≈ 65.5 µM) | 62.6 (≈ 131 µM) | 31.2 (≈ 65.5 µM) | 31.2 (≈ 65.5 µM) | 62.5 (≈ 131 µM) | 31.2 (≈ 65.5 µM) | 62.5 (≈ 131 µM) | MIC [21]: 31.2 µg/mL (≈ 65.5 µM); IC50 [22]: 22.2 µM; IC50 [23]: 20.4 µM; IC50 [24]: 18.2 µM; IC50 [25]: 19.6 µM
Clc1ccc(COC(Cn2ccnc2)c2ccc(Cl)cc2Cl)c(Cl)c1 (configuration not stated) [MICONAZOLE] | – | – | – | – | – | – | – | 7.8 (≈ 18.7 µM) | 7.8 (≈ 18.7 µM) | 7.8 (≈ 18.7 µM) | 7.8 (≈ 18.7 µM) | 7.8 (≈ 18.7 µM) | 7.8 (≈ 18.7 µM) | 7.8 (≈ 18.7 µM) | 7.8 (≈ 18.7 µM) | 7.8 (≈ 18.7 µM) | 7.8 (≈ 18.7 µM) | 7.8 (≈ 18.7 µM) | 7.8 (≈ 18.7 µM) | 7.8 (≈ 18.7 µM) | MIC [21]: 7.8 µg/mL (≈ 18.7 µM); IC50 [26]: 2.6 µM
Cc1c2ccccc2nc2c1c(C(F)(F)F)nn2CC(=O)NC1CCCC1 | 7.8 to 125 (≈ 20.7 to 332 µM) | 7.8 to 125 (≈ 20.7 to 332 µM) | 7.8 to 125 (≈ 20.7 to 332 µM) | 7.8 to 125 (≈ 20.7 to 332 µM) | 7.8 to 125 (≈ 20.7 to 332 µM) | 7.8 to 125 (≈ 20.7 to 332 µM) | 7.8 to 125 (≈ 20.7 to 332 µM) | – | – | – | – | – | – | – | – | – | – | – | – | – | Activity [27]: inactive; Activity [28]: inactive; Activity [29]: inactive; Activity [30]: inactive
O=C(Cn1nc(C(F)(F)F)c2c(-c3ccccc3)c3ccccc3nc21)NC1CC1 | 7.8 to 125 (≈ 19 to 305 µM) | 7.8 to 125 (≈ 19 to 305 µM) | 7.8 to 125 (≈ 19 to 305 µM) | 7.8 to 125 (≈ 19 to 305 µM) | 7.8 to 125 (≈ 19 to 305 µM) | 7.8 to 125 (≈ 19 to 305 µM) | 7.8 to 125 (≈ 19 to 305 µM) | – | – | – | – | – | – | – | – | – | – | – | – | – | Activity [27]: inactive; Activity [28]: inactive; Activity [29]: inactive; Activity [30]: inactive

— ChEMBL document CHEMBL4014279, “Synthesis of novel pyrazolo[3,4-b]quinolinyl acetamide analogs, their evaluation for antimicrobial and anticancer activities, validation by molecular modeling and CoMFA analysis” (Eur J Med Chem, 2017)
